The conditions of assay [1]: clinical studies; Glitz, Pohl, Drugs 1991; cited from earlier work.
The target in assay [2] is T1, 5-HT1A receptors (Rattus norvegicus, UniProt P19327).
T1 sequence (P19327 1-422): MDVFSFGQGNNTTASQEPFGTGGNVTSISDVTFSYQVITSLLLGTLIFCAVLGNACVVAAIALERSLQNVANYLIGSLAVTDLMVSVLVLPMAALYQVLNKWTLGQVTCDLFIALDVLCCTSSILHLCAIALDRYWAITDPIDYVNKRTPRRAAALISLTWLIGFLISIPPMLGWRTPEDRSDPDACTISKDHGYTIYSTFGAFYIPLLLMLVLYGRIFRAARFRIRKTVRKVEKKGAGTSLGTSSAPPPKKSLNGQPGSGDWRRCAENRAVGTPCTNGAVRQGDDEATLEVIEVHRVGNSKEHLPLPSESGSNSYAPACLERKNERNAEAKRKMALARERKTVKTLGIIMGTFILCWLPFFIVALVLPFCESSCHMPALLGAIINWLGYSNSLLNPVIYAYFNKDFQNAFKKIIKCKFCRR
The assay is described as follows: Inhibition of 3H-8-OH-DPAT binding to serotonin 5-HT1A receptors in rat brain in vitro. Details: 5-HT1A receptors in membranes from rat brain minus cerebellum; from tissue; host or cells: brain minus cerebellum of male Wistar (Mol:Wist) rats, crude membranes; species or system rat (male Wistar). To be noted: 3H 8-OH DPAT binding IC50, 1 nM 3H-8-OH-DPAT, rat brain minus cerebellum membranes, 37° C., 15 min.
Description: Male Wistar (Mol:Wist) rats (125-250 g) are sacrificed and the brain is dissected and weighed. The brain tissue minus cerebellum is homogenized (Ultra Turrax, 20 sec) in 10 ml of ice cold 50 nM Tris buffer pH 8.0 (at 25° C.) containing 120 mM NaCl, 4 mM CaCl2 and 4 mM MgCl2. The homogenate is centrifuged at 20,000 g for 10 min at 4° C. The pellet is homogenized in 10 ml of buffer and incubated at 37° C. for 10 min. The homogenate is centrifuged as above and the pellet is homogenized in 100 vol (w/v) ice cold buffer containing 10 μM of pargyline.
Incubation tubes kept on ice in triplicate receive 100 μl of drug solution in water (or water for total binding) and 1000 μl of tissue suspension (final tissue content corresponds to 10 mg original tissue). […] After incubation for 15 min the samples are filtered under vacuum (0-50 mBar) through Whatman GF/F filters (25 mm). The tubes are rinsed with 5 ml ice cold 0.9% NaCl which is then poured on the filters. Thereafter, the filters are washed with 2×5 ml 0.9% NaCl. The filters are placed in counting vials and 4 ml of appropriate scintillation fluid (e.g. Picofluor™ 15) are added. After shaking for 1 h and storage 2 h in the dark the content of radioactivity is determined by liquid scintillation counting. Specific binding is obtained by subtracting the nonspecific binding in the presence of 10 μM of 5-HT.
For determination of the inhibition of binding five concentrations of drugs covering 3 decades are used.
The IC50 -value is determined as the concentration, at which the binding is 50% of the total binding in control samples minus the nonspecific binding in the presence of 10 μM of 5-HT.

Assay [3] deals with T1, 5-HT1A receptors. The assay is described as follows: 8-OH DPAT cue agonism in rats (drug discrimination). It counts as in vivo, male Wistar rats. More on the design: agonist effects of a test compound on 5-HT1A receptors in vivo; from tissue; host or cells: living male Wistar rats (endogenous receptor, in vivo). To be noted: sc, read-out: 8-OH DPAT Cue Agonism ED50, rats, s.c., usually 30 or 45 min before test. The procedure:
8-OH DPAT Cue Agonisme in Rats
This test model is used to determine the agonist effects of a test compound on 5-HT1A receptors in vivo. A related method is described by Tricklebank, M. D., et al, Eur. J. Pharmacol., 1987, 133, 47-56; Arnt, J. Pharmacology & Toxicology, 1989, 64, 165.
Male Wistar rats are trained to discriminate between 8-OH-DPAT (0.4 mg/kg, i.p., 15 min pretreatment) and physiological saline in operant chambers equipped with two response levers. Between the levers a dipper is placed, where water rewards (0.1 ml) are presented. The rats are water deprived for at least 24 h and work in a fixed ratio (FR) schedule (final FR=32).
Following 8-OH-DPAT administration responding is reinforced only on a designated (drug) lever, whereas responding on the opposite lever has no consequences. Following saline administration responding is reinforced on the lever opposite to the drug lever. Drug and saline trials alternate randomly between days. The level of s discrimination occuracy is expressed as the per cent drug responses and is calculated as the number of correct responses ×100 divided by the sum of the correct and incorrect responses before the first reward. The time to the first reward is also recorded as a measure of reaction time. When stable occuracy (mean correst responding=90%; individual rats at least 75% correct responding) is obtained test sessions are included between training days. Test compound is injected s.c. usually 30 min or 45 min, respectively, before beginning of the test. The test trial is terminated when a total of 32 responses are made on either lever or when 20 min have elapsed. No reward is given and the rats have free access to water for 20-30 min after the test. The effects are expressed as per cent drug responding. Only results from rats making at least 10 responses on one lever are included in data analysis. Furthermore, only test sessions in which at least half of the rats respond are included.
The per cent inhibition of drug response obtained for each dose of test compound is used to calculate ED50 values by log-probit analysis.

Consider `CC1(C)CC(=O)N(CCCCN2CCN(c3ncccn3)CC2)C(=O)C1` [gepirone, 4,4-dimethyl-1-[4-[4-(2-pyrimidyl)-1-piperazinyl]butyl]-2,6-piperidinedione], for which the “usefulness in the treatment of anxiety disorders (in words)” value in assay [1] is “useful in the treatment of anxiety disorders”.
On 5-HT1A receptors [2], `CC(=O)Nc1ccc2c(c1)C(CN(C)CCCCc1ccccc1)CC2` (stereo not drawn) [Compound 13b, 6-Acetylamino-1-[N-methyl-N-(4-phenylbutan-1-yl)aminomethyl]indan] registered an IC50 of 3.4 nM. Further, at 5-HT1A receptors [3], the ED50 amounted to 0.22 µmol/kg.
The matching figures for `CN(C)CC1CCc2ccc(NC=O)cc21` (stereo not drawn) [Compound 1b, 1-(N,N-dimethylaminomethyl)-6-formylaminoindan]: 110 nM and 0.41 µmol/kg.
With `O=C1c2ccccc2S(=O)(=O)N1CCCCN1CCN(c2ncccn2)CC1` [ipsapirone, 2-[4-[4-(2-pyrimidyl)-1-piperazinyl]butyl]-1,2-benzothiazol-3(2H)-one-1,1-dioxide], the “usefulness in the treatment of anxiety disorders (in words)” value in assay [1] is “useful in the treatment of anxiety disorders”.
`CCCN(CCC)CC1CCc2ccc(NC(=O)N(C)C)cc21` (stereo not drawn) [Compound 4c, 6-(3,3-dimethyl-1-ureido)-1-(N,N-dipropylaminomethyl)indan] yielded an IC50 on 5-HT1A receptors [2] of 10 nM. Besides, the ED50 at 5-HT1A receptors [3] was determined as 0.42 µmol/kg.
The matching figures for `O=CNc1ccc2c(c1)C(CN1CCCCC1)CC2` (stereo not drawn) [Compound 1c, 6-formylamino-1-(1-piperidinomethyl)indan]: 42 nM and 0.33 µmol/kg.
For `CCCN(CCC)CC1CCc2ccc(NC=O)cc21` (stereo not drawn) [Compound 1a, 1-(N,N-dipropylaminomethyl)-6-formylaminoindan] the same measures were 4.1 nM and 0.0052 µmol/kg.
`CCCN(CCC)CC1CCc2ccc(NC(C)=O)cc21` (stereo not drawn) [Compound 2a, 6-Acetylamino-1-(N,N-dipropylaminomethyl)indan] gave an IC50 at 5-HT1A receptors [2] of 0.89 nM. The ED50 on 5-HT1A receptors [3] amounted to 0.01 µmol/kg.
As to `CC(=O)Nc1ccc2c(c1)C(CN(C)CCCCc1c[nH]c3ccccc13)CC2` (stereo not drawn) [Compound 13c, 6-Acetylamino-1-[N-[4-(indol-3-yl)butan-1-yl]-N-methylaminomethyl]indan], the IC50 on 5-HT1A receptors [2] is 1.5 nM. In addition, the ED50 at 5-HT1A receptors [3] turned out to be 0.66 µmol/kg.
The compound `CCCN(CCC)CC1CCc2ccc(NC(=O)c3ccc(F)cc3)cc21` (stereo not drawn) [Compound 2c, 1-(N,N-dipropylaminomethyl)-6-(4-fluorobenzoylamino)indan] returned an IC50 on 5-HT1A receptors [2] of 5.1 nM. Also, the ED50 on 5-HT1A receptors [3] was 2.2 µmol/kg.
In turn, `CC(=O)Nc1ccc2c(c1)C(CN(C)CCCCC1CCCCC1)CC2` (stereo not drawn) [Compound 13a, 6-Acetylamino-1-[N-(4-cyclohexylbutan-1-yl)-N-methylaminomethyl]indan] had an IC50 at 5-HT1A receptors [2] of 1.4 nM. For the same compound, the ED50 at 5-HT1A receptors [3] amounted to 0.15 µmol/kg.
In turn, `CCCN(CCC)CC1CCc2cc(Cl)c(NC(C)=O)cc21` (single isomer, unassigned; (-)) [Compound 11b, (-)-6-Acetylamino-5-chloro-1-(N,N-dipropylaminomethyl)indan] gave an IC50 on 5-HT1A receptors [2] of 15 nM. For the same compound, on 5-HT1A receptors [3], the ED50 amounted to 0.44 µmol/kg.
As to `CC(=O)Nc1ccc2c(c1)C(CN(C)CCN1CCNC1=O)CC2` (stereo not drawn) [Compound 13d, 6-Acetylamino-1-[N-[2-(2-imidazolidinon-1-yl)ethyl]-N -methylaminomethyl]indan], the IC50 on 5-HT1A receptors [2] was found to be 1.8 nM. The ED50 at 5-HT1A receptors [3] is 0.61 µmol/kg.
Take `CCCN(CCC)CC1CSc2ccc(NC=O)cc21` (stereo not drawn) [Compound 5a, 3-(N,N-dipropylaminomethyl)-5-formylamino-2,3-dihydrobenzothiophene]: the half-inhibitory concentration (IC50) on 5-HT1A receptors [2] worked out at 3.4 nM. The ED50 at 5-HT1A receptors [3] was 0.046 µmol/kg.
In turn, `CCCN(CCC)CC1CCc2cc(Cl)c(NC(C)=O)cc21` (stereo not drawn) [Compound 11a, 6-Acetylamino-5-chloro-1-(N,N-dipropylaminomethyl)indan] showed an IC50 at 5-HT1A receptors [2] of 21 nM. Further, the ED50 at 5-HT1A receptors [3] stood at 0.26 µmol/kg.
In the case of `CC(=O)Nc1ccc2c(c1)C(CN(C)C)CC2` (stereo not drawn) [Compound 2b, 6-Acetylamino-1-(N,N-dimethylaminomethyl)indan], the IC50 on 5-HT1A receptors [2] turned out to be 25 nM. For the same compound, the ED50 on 5-HT1A receptors [3] is 0.21 µmol/kg.
The compound `CCCN(CCC)CC1CCc2ccc(NS(C)(=O)=O)cc21` (stereo not drawn) [Compound 2g, 1-(N,N-dipropylaminomethyl)-6-(methylsulphonylamino)indan] yielded an IC50 at 5-HT1A receptors [2] of 16 nM. Moreover, on 5-HT1A receptors [3], the ED50 stood at 0.93 µmol/kg.
Regarding `CCCN(CCC)C1CCc2cccc(O)c2C1` (stereo not drawn) [8-OH DPAT, 8-hydroxy-2-dipropylaminotetralin, reference compound], the 50% effective dose (ED50) on 5-HT1A receptors [3] was found to be 0.1 µmol/kg.

The values above are taken from patent US5807889A, “Aminomethylindans, -benzofuranes and -benzothiophenes” (H. Lundbeck A/S, priority 1992, dated 1998).
